Source: US8491897B2, “Treatment of neuropathic pain using anti-thrombospondin antibodies” (The Board of Trustees of the Leland Stanford Junior …, priority 2007, dated 2013)
“Also recorded” adds a separate entry of the source.

Assays:
[1] = tested on: glutamatergic excitatory synapses in the cortex; assay: Synapse assay on mouse brain sections (VGlut2/PSD95 co-localized puncta in cortex) after GBP injection; format: in vivo, mice
Description: To determine whether GBP similarly blocks synapse formation in vivo, neonatal mice were injected with either GBP or saline, for the first postnatal week, which coincides with the initiation of synapse formation in the brain (see Experimental Procedures). […] At this age P7 glutamatergic synapses in the cortex are predominantly VGlut2 positive (Miyazaki et al., The Eur. J. of Neuroscience, 17:2563-2572, 2003). Therefore, co-immunostaining of sagital brain sections from (P7) saline or GBP-injected, mice was carried out with antibodies against VGlut2 and PSD95 and the number of co-localized pre- and post-synaptic puncta was quantified to determine synaptic density in the cortex of these mice. […] This difference was mainly due to a severe decrease in synapse number in half of the GBP injected animals. […] GBP injection affected both VGlut2 and PSD95 puncta by reducing their number, size, and co-localization (FIG. 7E) similar to its effect on synaptic puncta in vitro (FIG. 7A). […] It is interesting that the effect of GBP in vivo is an “all or none” effect rather than a gradual decrease in synapse number, and that only 50% of the mice responded to GBP injection. This could be due to a critical threshold concentration of GBP necessary to be effective in blocking synapse formation, which might only be achieved in some of the mice. In three repeated experiments, however, we observed only half of the mice were affected by GBP, even when we increased the total dosage and frequency from once a day to three times per day (see below and Experimental Procedures), and even though an inbred strain of mice was used.
Brains were immersed in 4% paraformaldehyde (PFA), fixed overnight at 4° C., and cryo-protected in 30% sucrose. For synaptic staining, tissue was embedded in a 2:1 mixture of 20% sucrose:OCT in PBS, and cryo-sectioned (12 μm). Sections were dried at 37° C., washed three times in PBS, and blocked with 20% normal goat serum (NGS, Invitrogen) in PBS 1 hr. Primary antibodies were diluted in PBS with 0.3% triton and 10% NGS as follows: PSD95 (Zymed, rabbit, 1:500) and VGlut1 and VGlut2 (Chemicon, guinea pig, 1:2500) incubated overnight at 4° C. […]
Three independent sagital brain sections per animal were stained with pre- and post-synaptic markers and 5 μm confocal scans were performed (optical section width 0.38 μm, 14 optical sections each) at the cortex. […] Merged single optical section images at 1 μm intervals were analyzed using the ImageJ-puncta analyzer option to count for number of co-localized pre- and post-synaptic puncta (5 optical sections per brain section and 15 total images per brain). Average synaptic density per imaged area was calculated for each condition. […]

barrel cortex = assay: Lesion-induced barrel cortex plasticity assay in neonatal mice; format: in vivo
From the text: Understanding how the brain remodels its neuronal networks has been a major goal of neurobiology, as these processes underlie learning, memory and recovery from injury. Is astrocyte-induced synapse formation involved in remodeling neural circuits during development? To explore this question a well-established developmental plasticity paradigm, ‘the barrel cortex plasticity’ assay, was used. The nerves that innervate the major whiskers on the snout of the mouse project to the brain as a topographically ordered “somatotopic” map where afferent axons and target cells form ordered modules that recapitulate the structural organization seen on the whisker pad (Erzurumlu et al., The Anatomical Record 288:121-134, 2006). First, neurons of the trigeminal nerve innervate the mystacial vibrissae (whiskers) and send projections […]. These projections then form synapses at the brainstem (barrelettes) and their afferents then project and synapse at the thalamus (barreloids). […]
Two groups of neonatal mice were injected either with GBP or an equal volume of saline daily starting at P0 until P7. […] The mice were then sacrificed at P7 and their barrel structure corresponding to both the unlesioned “control” hemisphere and the lesioned hemisphere were analyzed. […]

[2] = Weight gain and general health of injected pups; format: in vivo, mice; details: 400 mg/kg daily or 200 mg/kg three times a day i.p., vs saline
Description: In three independent experiments, two litters of wild type mice (n=3×12, FVB background) were given daily intraperitoneal injections of either a single dose of 400 mg/kg of GBP (Sigma-Aldrich) or a matching volume of saline solution (PBS). In one experiment the mice were injected with 200 mg/kg GBP (n=6) three times a day and the controls received the same volume of saline solution (n=6). […] Samples were blinded during analysis of the barrel cortex plasticity.

RGCs [3] = details: culture media containing GBP
RGCs [4] = assay: RGC neurite outgrowth; details: data not shown
RGCs [5] = tested on: RGCs

NCC1(CC(=O)O)CCCCC1 [Gabapentin, 1-(aminomethyl)cyclohexaneacetic acid]
proportion of injected mice that responded (severe reduction of synaptic puncta) ([1]; P7 mice): 50% | density of VGlut2/PSD95 excitatory synapses in the cerebral cortex ([1]; P7 mice injected i.p. daily in first postnatal week, vs saline, listed as GBP): significant decrease in the density of excitatory synapses; also recorded: significant decrease in the number of VGlut2-PSD95 synapses | VGlut2/PSD95 synaptic density relative to saline injected values ([1]; in the half of the mice that responded): less than 10% | number of neurons ([1]; responding mice): no apparent effect on the number of neurons | barrel formation on unlesioned control side (barrel cortex; daily injection P0 to P7, listed as GBP): typical barrels formed on the control side; also recorded: did not affect the barrel cortex formation | proportion of injected mice with atypical/aberrant barrel cortex plasticity response (barrel cortex; lesioned side, daily injection P0 to P7, C-row whisker lesion at P1): 50% | weight gain and general health [2]: showed no differences | RGC survival (RGCs [3]): 66.5±4.1% | neurite outgrowth (RGCs [4]): did not affect neurite outgrowth | toxicity to the RGCs (RGCs [5]): not toxic
